Laboratory results from PubChem BioAssay (NCI).
Values joined by “and” are separate entries in the source; they are usually repeats but may differ in a detail not shown here. Equal values may be shown once.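 Growth conditions: 96-well plates. Treatment: test compound, 48 hours, 5 concentrations. Analysis: linear interpolation between bracketing concentrations; unreached endpoints set to highest concentration. Here, GI50 denotes the concentration required for 50% inhibition of growth. TGI is the concentration that stops growth completely.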

What was measured:
Assay in all cases: NCI anticancer screen, dose series, 48 h
A549 NSCLC = test system: A549 NSCLC
COLO 205 colon = test system: COLO 205 colon
HCT-15 colon = test system: HCT-15 colon
HL-60(TB) leukemia = test system: HL-60(TB) leukemia
HT29 colon = test system: HT29 colon
IGROV1 ovarian = test system: IGROV1 ovarian
M19-MEL melanoma = test system: M19-MEL melanoma
OVCAR-3 ovarian = test system: OVCAR-3 ovarian
OVCAR-4 ovarian = test system: OVCAR-4 ovarian
SR leukemia = test system: SR leukemia

SMILES | TGI (A549 NSCLC) [µM] | TGI (COLO 205 colon) | TGI (HCT-15 colon) [µM] | TGI (HL-60(TB) leukemia) | TGI (HT29 colon) | TGI (IGROV1 ovarian) [µM] | TGI (M19-MEL melanoma) [µM] | TGI (OVCAR-3 ovarian) | TGI (OVCAR-4 ovarian) [µM] | GI50 (A549 NSCLC) | GI50 (COLO 205 colon) | GI50 (HCT-15 colon) | GI50 (HL-60(TB) leukemia) | GI50 (HT29 colon) | GI50 (IGROV1 ovarian) | GI50 (OVCAR-3 ovarian) | GI50 (OVCAR-4 ovarian) | GI50 (SR leukemia) | TGI (SR leukemia) | GI50 (M19-MEL melanoma) [µM]
O=C1[C@H]2ON(c3ccccc3)C(c3ccco3)[C@H]2C(=O)N1c1ccc(Cc2ccc(N3C(=O)[C@@H]4ON(c5ccccc5)C(c5ccco5)[C@@H]4C3=O)cc2)cc1 (some centres undefined) | > 100 | > 100 µM | > 100 | > 100 µM | > 100 µM | > 100 | > 100 | > 100 µM | > 100 |  |  |  |  |  |  |  |  |  |  | 
CC(C)(C)NCC(COc1ccc([N+](=O)[O-])cc1)OP(c1ccccc1)c1ccccc1 (centres undefined) | > 100 | > 100 µM | > 100 | 47.3 µM | > 100 µM | > 100 | > 100 | > 100 µM |  |  |  |  |  |  |  |  |  |  |  | 
COc1ccc2[nH]c(-c3ccc(O)cc3)cc(=O)c2c1 | > 59.4 | 6.25 µM | 7.03 | 2.16 µM | 8.69 µM | > 62.8 | > 86 | 13.1 µM | > 100 |  |  |  |  |  |  |  |  |  |  | 
N#C/C(=C1\SC(N=Nc2ccc(Cl)cc2)C(=O)N1c1ccccc1)c1nc2ccccc2[nH]1 (centres undefined) | 87.3 | > 100 µM | > 100 | > 100 µM | > 100 µM |  | 95.4 | 69 µM | 55.8 |  |  |  |  |  |  |  |  |  |  | 
COc1ccc(F)c(F)c1C(=O)c1cnc(NC2CCN(S(C)(=O)=O)CC2)nc1N | > 26.5 | 1.69 µM and 1.48 µM | > 100 | 4.61 µM | 7.68 µM and > 9.06 µM | > 100 |  | 5.26 µM and 6.56 µM | > 27.9 | 0.422 µM and 0.397 µM | 0.253 µM and 0.15 µM | 0.484 µM and 0.361 µM | 0.0672 µM | 0.42 µM and 0.341 µM | 1.06 µM and 0.387 µM | 0.961 µM and 0.588 µM | 1.44 µM and 1.41 µM | 0.188 µM and 0.114 µM |  | 
Cc1ccc(-n2nc(C(C)(C)C)cc2NC(=O)NCc2cc(F)ccc2Oc2ccc3c(cnn3CCO)c2)cc1 | > 100 | > 10 µM and 10.9 µM | > 100 | > 10 µM and 10.1 µM | > 10 µM and 26.6 µM | > 100 |  | > 76.5 µM | > 100 | > 10 µM and 11.7 µM | 0.795 µM and 1.86 µM | > 10 µM and 8.9 µM | 1.41 µM and 2.09 µM | 0.718 µM and 2.44 µM | 2.59 µM and 4.69 µM | > 10 µM and 7.65 µM | > 10 µM and 4.1 µM | > 10 µM and 1.12 µM | > 10 µM and 4.33 µM | 
COc1cc2nc(-c3ccc(C(F)(F)F)cc3)cc(OCCCN3CCCC3)c2cc1OC | > 42.7 | 4.54 µM | 6.99 | 5.86 µM | 5.85 µM | 14.5 |  | > 42.2 µM | > 86.7 | 0.685 µM | 0.398 µM | 0.429 µM | 1 µM | 0.429 µM | 0.593 µM | 4.07 µM | 3.1 µM | 0.207 µM |  | 
CCOC(=O)c1c(SCCN2CCOCC2)n(-c2ccccc2)c(=S)n(-c2ccccc2)c1=O | > 100 | > 100 µM | 45.7 | 49.2 µM | 34.9 µM | > 100 |  | > 100 µM | > 100 |  |  |  |  |  |  |  |  |  | 48.2 µM | 
COC(=O)C1C(=O)N(CCc2c[nH]c3ccccc23)C[C@@H]2CCC(=O)C[C@H]12 (some centres undefined) | > 100 | > 100 µM | > 100 | > 100 µM | > 100 µM | > 100 | > 100 | > 100 µM | > 100 |  |  |  |  |  |  |  |  |  |  | 
Cc1ccc(C)c(N2C(=O)C(=O)C(c3nc4ccccc4s3)C(=Nc3cccc4c(=O)[nH][nH]c(=O)c34)C2=O)c1 (centres undefined) | > 100 | > 100 µM | > 100 | > 100 µM | > 100 µM | > 100 |  | > 100 µM | > 100 |  |  |  |  |  |  |  |  |  | > 100 µM | 
CC(=O)[CH-]C(=O)c1ccccc1.CC(=O)[CH-]C(=O)c1ccccc1.CC1(C)OCC(C2OC3OC(C)(C)OC3C2[O-])O1.CC[O-].[Ti+4] (centres undefined) | 40 | 32.5 µM | 68 |  | 29.3 µM | 33.5 | 24.5 | 30.2 µM | 32.2 | 16.6 µM | 17 µM | 25.9 µM |  | 13.7 µM | 17.9 µM | 11.7 µM | 14.2 µM |  |  | 10.5
Cc1cccc(N(CC(=O)O)S(=O)(=O)c2ccccc2)c1 | > 100 | > 100 µM | > 100 | > 100 µM | > 100 µM | > 100 | > 100 | > 100 µM | > 100 |  |  |  |  |  |  |  |  |  |  | 
Cc1cc2c(cc1Cl)S/C(=C/C(=O)O)C(Nc1cccc3nsnc13)=NS2(=O)=O | > 81.3 | > 61.5 µM | > 68.8 | > 32.5 µM | > 63.1 µM | > 78.3 |  | > 69.8 µM | 42.7 | > 51 µM | > 48.3 µM | > 54.7 µM | 7.63 µM | 6.17 µM | > 49.9 µM | 47.5 µM | 18.7 µM | 32.8 µM | > 100 µM | 
O=C(NCCN1CCNCC1)c1ccc(Nc2nc3ccccc3c3occc23)cc1 | 36.8 | > 100 µM | 37.9 | 33.5 µM | > 100 µM | 15.1 |  | 80.1 µM | 33.3 | 17.5 µM | 10.6 µM | 20 µM | 17.6 µM | 4.5 µM | 1.97 µM | 14.5 µM | 14.3 µM | 25 µM | 43.8 µM | 
COc1cccc(COc2cc(-n3cnc4ccccc43)sc2C(N)=O)c1 | > 25 | > 25 µM | > 25 | > 25 µM | > 25 µM | > 25 |  | > 25 µM | > 25 | > 21.7 µM | 4.75 µM | > 25 µM | 6.03 µM | 2.03 µM | > 23.8 µM | 5.09 µM | > 25 µM | 6.98 µM | > 25 µM | 
C=CCNC(=O)N(CCC)CCCC(NC(C)=O)C(=O)NCc1ccccc1 (centres undefined) | > 100 | > 100 µM | > 100 | > 100 µM | > 100 µM | > 100 | > 100 | > 100 µM | > 100 |  |  |  |  |  |  |  |  |  |  | 
COc1ccc(-c2cnoc2-c2cc(OC)c3c(c2)OCCO3)cc1 | > 100 | 0.0806 µM | 28.1 | 0.975 µM | 20.8 µM | > 100 |  | 1.55 µM | > 100 | 0.048 µM | 0.0231 µM | 0.0258 µM | 0.0289 µM | 0.0331 µM | 0.0924 µM | < 0.0172 µM | 14 µM | 0.0226 µM | 6.29 µM | 
